The text below walks through data of patent publication US20080200474A1, “NOVEL FLUNARIZINE SALT FORMS AND METHODS OF MAKING AND USING THE SAME” (TRANSFORM PHARMACEUTICALS, INC., priority 2007, published 2008).

The format of data set [1] is physicochemical. The source says: Dynamic vapor sorption (DVS) analysis was completed on flunarizine benzoate from about 0 to about 95 percent relative humidity at about 25 degrees C. (See FIG. 5). […] This is characteristic of a nonhygroscopic material.
Dynamic vapor sorption (DVS) analysis was completed on flunarizine fumarate from about 0 to about 95 percent relative humidity at about 25 degrees C. (See FIG. 9). […] This is characteristic of a nonhygroscopic material.
Flunarizine dihydrochloride is hygroscopic. The dihydrochloride salt rapidly adsorbs water (greater than 7 percent change in mass) at relative humidity levels above about 60 percent. The release of the adsorbed water is difficult upon desorption. In comparison, the flunarizine benzoate salt of the present invention adsorbs relatively little water (less than 1 percent change in mass) at relative humidity levels up to about 95 percent.

Data set [2] is described as follows: Excipient compatibility, solid mixes sucrose:crospovidone:flunarizine salt 94:5:1 stored at 60 degrees C. Type of data set: physicochemical. Conditions: sucrose:crospovidone:salt 94:5:1 (weight %), wetted and dried, seal crimped, stored at 60 degrees C. for 2 weeks. How it is done:
Two solid mixes, one containing sucrose:crospovidone:flunarizine dihydrochloride 94:5:1 (weight %), and the other containing sucrose:crospovidone:flunarizine benzoate 94:5:1 (weight %), were prepared in mortars, transferred to separate vials and a small amount of water was added until a very viscous syrup was formed. The samples were left to air dry at room temperature for two days followed by one day under vacuum at 40 degrees C. After the processing was finished, pictures of the samples were taken. Vials with identical content to the ones pictured were seal crimped and stored at 60 degrees C. for 2 weeks. After this period, their pictures were taken.

Where a name gives a salt, the structure may show the parent alone. Read-outs that look alike come from different tables or passages of the source.

Take `Fc1ccc(C(c2ccc(F)cc2)N2CCN(CC=Cc3ccccc3)CC2)cc1.O=C(O)c1ccccc1` [flunarizine benzoate, 1-cinnamyl-4-(di-p-fluorobenzhydryl)piperazine benzoate]: in data set [1], the “stability over relative humidity (DVS)” value is recorded as “stable from about 0% to about 95% relative humidity”. In addition, the “hygroscopicity (DVS)” value in data set [1] (about 25 degrees C.) was “nonhygroscopic”. Moreover, the “water adsorption, change in mass” value in data set [1] (relative humidity levels up to about 95 percent) is “less than 1%”. Also, in data set [2], the “degradation in excipient mix (comparison of images)” value is listed as “substantially more degradation had occurred in the mixes containing flunarizine dihydrochloride than those containing flunarizine benzoate”.
For the molecule `Fc1ccc(C(c2ccc(F)cc2)N2CCN(C/C=C/c3ccccc3)CC2)cc1` [flunarizine dihydrochloride, reference compound], the “release of the adsorbed water upon desorption” value in data set [1] (DVS desorption, about 25 degrees C.) is recorded as “difficult”. For the same molecule, the “hygroscopicity (DVS)” value in data set [1] (about 25 degrees C.) is “hygroscopic”. Besides, in data set [1] (relative humidity levels above about 60 percent, about 25 degrees C.), the “water adsorption, change in mass” value was “greater than 7%”. In addition, the “degradation in excipient mix (comparison of images)” value in data set [2] was “substantially more degradation”.
With “1-cinnamyl-4-(di-p-fluorobenzhydryl)piperazine fumarate [flunarizine fumarate]”, the “stability over relative humidity (DVS)” value in data set [1] was “stable from about 0% to about 95% relative humidity”. In data set [1] (about 25 degrees C.), the “hygroscopicity (DVS)” value is “nonhygroscopic”.
